{"source": "PubChem BioAssay AID2060618", "about": "(Molecular Pharmacology Branch, DTP, NCI, 2025);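 further: spheroids exposed to compounds for 7 days before readout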", "system": "454973-116-R2-J3-PDC spheroids, percent test/control viability", "assay": "Anticancer human tumor 454973-116-R2-J3-PDC patient-derived pancreatic carcinoma cell line growth inhibition [CLK]", "conditions": "spheroids with HUVEC and MSC; for IC50: curve of first compound; for viability, T/C: stronger effect = lower value", "method_in_brief": "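Multi-cell-type spheroids combined patient-derived tumor cells with HUVEC endothelial cells and human mesenchymal stem cells. Paired agents were dosed in half-log steps down from about clinical Cmax, or from 10 microM where Cmax was unknown.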", "data": [{"smiles": "CC(C)CC(NC(=O)C(Cc1ccccc1)NC(=O)c1cnccn1)B(O)O", "note": "(centres undefined) + CN1CCN(c2cc(C(=O)Nc3cc4cc(-c5cnn(C)c5)ccc4cn3)ccn2)CC1", "values": [{"measurement": "IC50", "setting": "second compound 0.0316 µM", "value": 3.31, "unit": "nM"}, {"measurement": "IC50", "setting": "second compound 0.1 µM", "value": 1.5, "unit": "nM"}, {"measurement": "IC50", "setting": "second compound 0.316 µM", "value": "< 0.949", "unit": "nM"}, {"measurement": "IC50", "setting": "second compound 1 µM", "value": "< 0.949", "unit": "nM"}, {"measurement": "IC50", "setting": "second compound 3.16 µM", "value": "< 0.949", "unit": "nM"}, {"measurement": "IC50", "setting": "second compound 10 µM", "value": "< 0.949", "unit": "nM"}, {"measurement": "viability, T/C", "setting": "second compound 0.0316 µM, first compound 0.000949 µM", "value": 94.4, "unit": "%"}, {"measurement": "viability, T/C", "setting": "second compound 0.0316 µM, first compound 0.003 µM", "value": 54.7, "unit": "%"}, {"measurement": "viability, T/C", "setting": "second compound 0.0316 µM, first compound 0.00949 µM", "value": 0.27, "unit": "%"}, {"measurement": "viability, T/C", "setting": "second compound 0.0316 µM, first compound 0.03 µM", "value": 0.3, "unit": "%"}, {"measurement": "viability, T/C", "setting": "second compound 0.0316 µM, first compound 0.0949 µM", "value": 0.17, "unit": "%"}, {"measurement": "viability, T/C", "setting": "second compound 0.0316 µM, first compound 0.3 µM", "value": 0.14, "unit": "%"}, {"measurement": "viability, T/C", "setting": "second compound 0.1 µM, first compound 0.000949 µM", "value": 73.7, "unit": "%"}, {"measurement": "viability, T/C", "setting": "second compound 0.1 µM, first compound 0.003 µM", "value": 14.8, "unit": "%"}, {"measurement": "viability, T/C", "setting": "second compound 0.1 µM, first compound 0.00949 µM", "value": 0.41, "unit": "%"}, {"measurement": "viability, T/C", "setting": "second compound 0.1 µM, first compound 0.03 µM", "value": 0.19, "unit": "%"}, {"measurement": "viability, T/C", "setting": "second compound 0.1 µM, first compound 0.0949 µM", "value": 0.16, "unit": "%"}, {"measurement": "viability, T/C", "setting": "second compound 0.1 µM, first compound 0.3 µM", "value": 0.14, "unit": "%"}, {"measurement": "viability, T/C", "setting": "second compound 0.316 µM, first compound 0.000949 µM", "value": 2.21, "unit": "%"}, {"measurement": "viability, T/C", "setting": "second compound 0.316 µM, first compound 0.003 µM", "value": 0.7, "unit": "%"}, {"measurement": "viability, T/C", "setting": "second compound 0.316 µM, first compound 0.00949 µM", "value": 1.43, "unit": "%"}, {"measurement": "viability, T/C", "setting": "second compound 0.316 µM, first compound 0.03 µM", "value": 0.12, "unit": "%"}, {"measurement": "viability, T/C", "setting": "second compound 0.316 µM, first compound 0.0949 µM", "value": 0.11, "unit": "%"}, {"measurement": "viability, T/C", "setting": "second compound 0.316 µM, first compound 0.3 µM", "value": 0.09, "unit": "%"}, {"measurement": "viability, T/C", "setting": "second compound 1 µM, first compound 0.000949 µM", "value": 0.12, "unit": "%"}, {"measurement": "viability, T/C", "setting": "second compound 1 µM, first compound 0.003 µM", "value": 0.19, "unit": "%"}, {"measurement": "viability, T/C", "setting": "second compound 1 µM, first compound 0.00949 µM", "value": 0.09, "unit": "%"}, {"measurement": "viability, T/C", "setting": "second compound 1 µM, first compound 0.03 µM", "value": 0.05, "unit": "%"}, {"measurement": "viability, T/C", "setting": "second compound 1 µM, first compound 0.0949 µM", "value": 0.07, "unit": "%"}, {"measurement": "viability, T/C", "setting": "second compound 1 µM, first compound 0.3 µM", "value": 0.07, "unit": "%"}, {"measurement": "viability, T/C", "setting": "second compound 3.16 µM, first compound 0.000949 µM", "value": 0.16, "unit": "%"}, {"measurement": "viability, T/C", "setting": "second compound 3.16 µM, first compound 0.003 µM", "value": 1.02, "unit": "%"}, {"measurement": "viability, T/C", "setting": "second compound 3.16 µM, first compound 0.00949 µM", "value": 0.07, "unit": "%"}, {"measurement": "viability, T/C", "setting": "second compound 3.16 µM, first compound 0.03 µM", "value": 0.05, "unit": "%"}, {"measurement": "viability, T/C", "setting": "second compound 3.16 µM, first compound 0.0949 µM", "value": 0.6, "unit": "%"}, {"measurement": "viability, T/C", "setting": "second compound 3.16 µM, first compound 0.3 µM", "value": 0.79, "unit": "%"}, {"measurement": "viability, T/C", "setting": "second compound 10 µM, first compound 0.000949 µM", "value": 0.09, "unit": "%"}, {"measurement": "viability, T/C", "setting": "second compound 10 µM, first compound 0.003 µM", "value": 0.13, "unit": "%"}, {"measurement": "viability, T/C", "setting": "second compound 10 µM, first compound 0.00949 µM", "value": 0.88, "unit": "%"}, {"measurement": "viability, T/C", "setting": "second compound 10 µM, first compound 0.03 µM", "value": 0.09, "unit": "%"}, {"measurement": "viability, T/C", "setting": "second compound 10 µM, first compound 0.0949 µM", "value": 0.16, "unit": "%"}, {"measurement": "viability, T/C", "setting": "second compound 10 µM, first compound 0.3 µM", "value": 0.17, "unit": "%"}]}, {"smiles": "O=C(c1cc(Cc2n[nH]c(=O)c3ccccc23)ccc1F)N1CCN(C(=O)C2CC2)CC1", "note": "+ CN1CCN(c2cc(C(=O)Nc3cc4cc(-c5cnn(C)c5)ccc4cn3)ccn2)CC1", "values": [{"measurement": "IC50", "setting": "second compound 0.0316 µM", "value": "> 10000", "unit": "nM"}, {"measurement": "IC50", "setting": "second compound 0.1 µM", "value": 5860, "unit": "nM"}, {"measurement": "IC50", "setting": "second compound 0.316 µM", "value": "< 31.6", "unit": "nM"}, {"measurement": "IC50", "setting": "second compound 1 µM", "value": "< 31.6", "unit": "nM"}, {"measurement": "IC50", "setting": "second compound 3.16 µM", "value": "< 31.6", "unit": "nM"}, {"measurement": "IC50", "setting": "second compound 10 µM", "value": "< 31.6", "unit": "nM"}, {"measurement": "viability, T/C", "setting": "second compound 0.0316 µM, first compound 0.0316 µM", "value": 99, "unit": "%"}, {"measurement": "viability, T/C", "setting": "second compound 0.0316 µM, first compound 0.1 µM", "value": 99.5, "unit": "%"}, {"measurement": "viability, T/C", "setting": "second compound 0.0316 µM, first compound 0.316 µM", "value": 101, "unit": "%"}, {"measurement": "viability, T/C", "setting": "second compound 0.0316 µM, first compound 1 µM", "value": 115, "unit": "%"}, {"measurement": "viability, T/C", "setting": "second compound 0.0316 µM, first compound 3.16 µM", "value": 94.7, "unit": "%"}, {"measurement": "viability, T/C", "setting": "second compound 0.0316 µM, first compound 10 µM", "value": 71.8, "unit": "%"}, {"measurement": "viability, T/C", "setting": "second compound 0.1 µM, first compound 0.0316 µM", "value": 75.8, "unit": "%"}, {"measurement": "viability, T/C", "setting": "second compound 0.1 µM, first compound 0.1 µM", "value": 77, "unit": "%"}, {"measurement": "viability, T/C", "setting": "second compound 0.1 µM, first compound 0.316 µM", "value": 73.5, "unit": "%"}, {"measurement": "viability, T/C", "setting": "second compound 0.1 µM, first compound 1 µM", "value": 75.7, "unit": "%"}, {"measurement": "viability, T/C", "setting": "second compound 0.1 µM, first compound 3.16 µM", "value": 62.5, "unit": "%"}, {"measurement": "viability, T/C", "setting": "second compound 0.1 µM, first compound 10 µM", "value": 38, "unit": "%"}, {"measurement": "viability, T/C", "setting": "second compound 0.316 µM, first compound 0.0316 µM", "value": 1.44, "unit": "%"}, {"measurement": "viability, T/C", "setting": "second compound 0.316 µM, first compound 0.1 µM", "value": 2.27, "unit": "%"}, {"measurement": "viability, T/C", "setting": "second compound 0.316 µM, first compound 0.316 µM", "value": 1.78, "unit": "%"}, {"measurement": "viability, T/C", "setting": "second compound 0.316 µM, first compound 1 µM", "value": 1.98, "unit": "%"}, {"measurement": "viability, T/C", "setting": "second compound 0.316 µM, first compound 3.16 µM", "value": 2.16, "unit": "%"}, {"measurement": "viability, T/C", "setting": "second compound 0.316 µM, first compound 10 µM", "value": 2.03, "unit": "%"}, {"measurement": "viability, T/C", "setting": "second compound 1 µM, first compound 0.0316 µM", "value": 0.12, "unit": "%"}, {"measurement": "viability, T/C", "setting": "second compound 1 µM, first compound 0.1 µM", "value": 0.14, "unit": "%"}, {"measurement": "viability, T/C", "setting": "second compound 1 µM, first compound 0.316 µM", "value": 1.94, "unit": "%"}, {"measurement": "viability, T/C", "setting": "second compound 1 µM, first compound 1 µM", "value": 0.08, "unit": "%"}, {"measurement": "viability, T/C", "setting": "second compound 1 µM, first compound 3.16 µM", "value": 0.83, "unit": "%"}, {"measurement": "viability, T/C", "setting": "second compound 1 µM, first compound 10 µM", "value": 0.08, "unit": "%"}, {"measurement": "viability, T/C", "setting": "second compound 3.16 µM, first compound 0.0316 µM", "value": 0.13, "unit": "%"}, {"measurement": "viability, T/C", "setting": "second compound 3.16 µM, first compound 0.1 µM", "value": 0.21, "unit": "%"}, {"measurement": "viability, T/C", "setting": "second compound 3.16 µM, first compound 0.316 µM", "value": 0.33, "unit": "%"}, {"measurement": "viability, T/C", "setting": "second compound 3.16 µM, first compound 1 µM", "value": 0.13, "unit": "%"}, {"measurement": "viability, T/C", "setting": "second compound 3.16 µM, first compound 3.16 µM", "value": 0.29, "unit": "%"}, {"measurement": "viability, T/C", "setting": "second compound 3.16 µM, first compound 10 µM", "value": 0.27, "unit": "%"}, {"measurement": "viability, T/C", "setting": "second compound 10 µM, first compound 0.0316 µM", "value": 1.42, "unit": "%"}, {"measurement": "viability, T/C", "setting": "second compound 10 µM, first compound 0.1 µM", "value": 0.14, "unit": "%"}, {"measurement": "viability, T/C", "setting": "second compound 10 µM, first compound 0.316 µM", "value": 0.17, "unit": "%"}, {"measurement": "viability, T/C", "setting": "second compound 10 µM, first compound 1 µM", "value": 0.13, "unit": "%"}, {"measurement": "viability, T/C", "setting": "second compound 10 µM, first compound 3.16 µM", "value": 0.39, "unit": "%"}, {"measurement": "viability, T/C", "setting": "second compound 10 µM, first compound 10 µM", "value": 0.22, "unit": "%"}]}]}
